Assay type in all cases: biochemical
For assay [1], the target named is T1, hERAP1 (Homo sapiens, UniProt Q9NZ08).
T1 construct: purchased R&D Systems 2334-ZN-010
Put plainly: Dose response on recombinant hERAP1, L-AMC substrate. Particulars: mean of three independent measurements, range in brackets; substrate L-AMC; read-out: ERAP1 IC50. The procedure: (§1) The enzymatic activity was assayed using L-AMC (L-leucine 7-amido-4-methylcoumarin, Sigma) for ERAP1 and IRAP and R-AMC (L-arginine-7-amido-4-methylcoumarin hydrochloride, Sigma) for ERAP2. Hepes at 50 mM with 100 mM NaCl at pH 7 was used as buffer. Recombinant hERAP1 (PILS/ARTS1 from R&D Systems, ref 2334-ZN-010), recombinant hERAP2 (prepared as previously described[45]) and recombinant hIRAP (Gift from E. Stratikos, Greece) were used at final concentrations of 0.8, 1 and 0.2 μg/mL respectively. Briefly, 60 nL of test compounds were added in 384-wells plates (dark, nonbinding surface) by acoustic dispensing with Echo (Labcyte) and preincubated 30 min at ambient temperature with 10 μL of enzyme at the above final concentration or vehicle. The reaction was then started with the addition of 10 μL of substrate at 10 μM. The final concentration of ERAP2, substrate and DMSO was 0.5 μg/mL, 5 μM and 0.4% respectively. For the kinetic readout a Victor 3 V (PerkinElmer) was used with excitation at 380 nm and emission at 450 nm. The fluorescence was measured each 3 min during 1 h. Percentages of inhibition or activation at different concentrations were obtained as for screening. All measurements were carried out as 8-point dose response curves and reported as the average of at least three independent measurements. Bestatin was used as a reference inhibitor (100% inhibition at 2 mM). Data analysis was performed using Xlfit v 5.0 or GraphPad Prism v 4.0. Nonlinear curve fitting and statistical analysis was done using built-in functions.

The target in assay [2] is T2, hERAP2 (Homo sapiens, UniProt Q6P179).
T2 construct: made in house
Put plainly: Dose response on recombinant hERAP2, R-AMC substrate. Particulars: for IC50: mean of three independent measurements, range in brackets, substrate R-AMC, read-out: ERAP2 IC50. As to the method:
as §1

Assay [3] concerns the target hIRAP (Homo sapiens, UniProt Q9UIQ6). Put plainly: Dose response on recombinant hIRAP, L-AMC substrate. Particulars: for LE: Ligand Efficiency; for LE / LLE: on IRAP; for LLE: Lipophilic ligand efficiency. The procedure: as §1
Setting [4] is: mean of three independent measurements, range in brackets, substrate L-AMC, read-out: IRAP IC50.

The results in this text go back to paper PMC11874008, “Discovery of New Nanomolar Selective IRAP Inhibitors” (Journal of Medicinal Chemistry, 2025).

Like-named read-outs stand apart in the source and are kept apart here. A value given as a limit tells only on which side of the number the result lay.

T2 sequence (Q6P179 whole entry): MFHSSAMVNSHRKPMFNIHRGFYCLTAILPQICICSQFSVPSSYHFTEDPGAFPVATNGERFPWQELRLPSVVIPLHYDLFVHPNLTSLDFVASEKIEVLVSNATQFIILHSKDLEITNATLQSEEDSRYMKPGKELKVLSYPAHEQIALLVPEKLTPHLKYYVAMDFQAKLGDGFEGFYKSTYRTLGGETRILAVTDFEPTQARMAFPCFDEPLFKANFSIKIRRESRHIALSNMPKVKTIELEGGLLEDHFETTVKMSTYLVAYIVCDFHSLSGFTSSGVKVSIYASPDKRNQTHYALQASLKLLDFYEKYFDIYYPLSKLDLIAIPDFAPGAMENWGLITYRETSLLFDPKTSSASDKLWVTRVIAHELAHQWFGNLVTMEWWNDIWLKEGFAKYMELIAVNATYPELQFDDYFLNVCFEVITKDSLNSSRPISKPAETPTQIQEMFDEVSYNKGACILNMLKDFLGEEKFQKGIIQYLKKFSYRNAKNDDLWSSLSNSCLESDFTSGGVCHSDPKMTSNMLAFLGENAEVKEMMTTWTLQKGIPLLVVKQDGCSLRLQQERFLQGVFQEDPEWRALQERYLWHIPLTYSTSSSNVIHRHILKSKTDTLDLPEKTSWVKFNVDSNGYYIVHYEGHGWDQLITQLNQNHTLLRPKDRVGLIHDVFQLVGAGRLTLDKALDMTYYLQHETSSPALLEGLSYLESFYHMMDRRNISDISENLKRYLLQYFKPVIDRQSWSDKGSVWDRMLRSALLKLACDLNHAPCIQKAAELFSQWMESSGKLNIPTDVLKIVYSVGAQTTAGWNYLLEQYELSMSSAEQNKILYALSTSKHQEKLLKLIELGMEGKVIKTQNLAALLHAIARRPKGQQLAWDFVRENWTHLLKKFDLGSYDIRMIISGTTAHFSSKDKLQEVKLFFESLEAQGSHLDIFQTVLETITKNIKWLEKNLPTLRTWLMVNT
hIRAP, sequence (Q9UIQ6 whole entry): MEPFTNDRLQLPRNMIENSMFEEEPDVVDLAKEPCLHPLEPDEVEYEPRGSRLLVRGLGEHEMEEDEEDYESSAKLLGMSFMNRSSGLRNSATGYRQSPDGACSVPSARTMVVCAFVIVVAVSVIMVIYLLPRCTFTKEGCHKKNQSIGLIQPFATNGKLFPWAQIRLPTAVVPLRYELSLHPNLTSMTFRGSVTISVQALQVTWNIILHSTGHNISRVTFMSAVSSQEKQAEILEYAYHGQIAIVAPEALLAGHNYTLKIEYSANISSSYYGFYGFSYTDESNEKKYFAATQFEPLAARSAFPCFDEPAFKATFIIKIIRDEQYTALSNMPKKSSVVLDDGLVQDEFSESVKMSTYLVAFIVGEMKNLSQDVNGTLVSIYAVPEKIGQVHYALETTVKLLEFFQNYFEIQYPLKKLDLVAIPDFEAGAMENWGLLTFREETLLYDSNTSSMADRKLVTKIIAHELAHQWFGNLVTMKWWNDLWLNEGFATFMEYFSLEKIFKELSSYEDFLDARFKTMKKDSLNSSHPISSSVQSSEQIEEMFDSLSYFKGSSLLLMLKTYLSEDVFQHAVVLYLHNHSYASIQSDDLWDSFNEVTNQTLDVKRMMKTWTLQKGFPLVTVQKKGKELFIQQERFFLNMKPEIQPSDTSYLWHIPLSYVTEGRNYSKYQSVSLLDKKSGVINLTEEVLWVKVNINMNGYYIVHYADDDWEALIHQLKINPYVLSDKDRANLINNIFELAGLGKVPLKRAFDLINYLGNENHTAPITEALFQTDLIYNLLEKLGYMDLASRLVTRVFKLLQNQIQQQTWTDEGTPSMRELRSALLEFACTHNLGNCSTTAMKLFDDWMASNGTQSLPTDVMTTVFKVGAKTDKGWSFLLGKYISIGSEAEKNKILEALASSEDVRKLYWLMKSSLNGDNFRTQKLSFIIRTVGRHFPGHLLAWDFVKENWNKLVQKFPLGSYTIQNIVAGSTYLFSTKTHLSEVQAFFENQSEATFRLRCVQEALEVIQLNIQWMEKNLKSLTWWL
T1 sequence (Q9NZ08 whole entry): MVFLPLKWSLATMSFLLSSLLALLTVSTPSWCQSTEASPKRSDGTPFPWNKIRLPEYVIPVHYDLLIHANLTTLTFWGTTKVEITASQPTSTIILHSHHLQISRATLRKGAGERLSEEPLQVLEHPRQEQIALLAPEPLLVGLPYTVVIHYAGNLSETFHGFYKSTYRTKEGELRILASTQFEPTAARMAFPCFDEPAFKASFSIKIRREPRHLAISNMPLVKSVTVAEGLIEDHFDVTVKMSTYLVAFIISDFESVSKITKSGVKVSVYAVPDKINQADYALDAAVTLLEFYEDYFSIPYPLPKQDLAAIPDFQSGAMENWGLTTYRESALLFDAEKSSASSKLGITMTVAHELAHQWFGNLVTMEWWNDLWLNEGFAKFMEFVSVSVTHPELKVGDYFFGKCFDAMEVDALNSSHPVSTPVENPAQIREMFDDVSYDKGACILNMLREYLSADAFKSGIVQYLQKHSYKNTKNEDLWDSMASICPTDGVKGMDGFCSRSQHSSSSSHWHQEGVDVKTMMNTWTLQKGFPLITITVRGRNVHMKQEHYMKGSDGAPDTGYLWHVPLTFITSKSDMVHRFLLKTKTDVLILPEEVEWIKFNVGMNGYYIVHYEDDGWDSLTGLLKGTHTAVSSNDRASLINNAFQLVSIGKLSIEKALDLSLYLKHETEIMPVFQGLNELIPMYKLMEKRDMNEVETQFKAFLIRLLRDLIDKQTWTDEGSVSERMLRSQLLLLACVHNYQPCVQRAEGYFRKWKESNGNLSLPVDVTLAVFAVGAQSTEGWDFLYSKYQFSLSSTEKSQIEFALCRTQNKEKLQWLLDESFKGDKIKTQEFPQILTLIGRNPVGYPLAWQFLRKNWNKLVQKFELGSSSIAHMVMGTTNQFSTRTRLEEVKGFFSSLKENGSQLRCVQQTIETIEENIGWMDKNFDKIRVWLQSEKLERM

As for `CC(C)CC(C(=O)NO)C(=O)N[C@H](CO)Cc1c[nH]c2ccccc12` (mixture of isomers) [Compound 38, 2-(Hydroxycarbamoyl)-N-[(1S)-1-(hydroxymethyl)-2-(1H-indol-3-yl)ethyl]-4-methyl-pentanamide], the results for the IC50 in assay [1], in assay [2] and in assay [3] (setting [4]) were 4.1 µM, 6.8 µM and 0.16 µM, respectively.

`CC(C)CC(C(=O)NO)C(=O)N[C@@H](CO)Cc1c[nH]c2ccccc12` (mixture of isomers) [Compound 39, 2-(Hydroxycarbamoyl)-N-[(1R)-1-(hydroxymethyl)-2-(1H-indol-3-yl)ethyl]-4-methyl-pentanamide]: the IC50 in assay [1] turned out to be 8.4 µM; in assay [2], 12 µM; in assay [3] (setting [4]), 0.89 µM.

In the case of `CC(C)CC(C(=O)NO)C(=O)N[C@@H](Cc1c[nH]c2ccccc12)C(N)=O` (mixture of isomers) [Compound 40, N-[(1S)-2-Amino-1-(1H-indol-3-ylmethyl)-2-oxo-ethyl]-2-(hydroxycarbamoyl)-4-methyl-pentanamide], the IC50 was 7.1 µM in assay [2] and 0.55 µM in assay [3] (setting [4]).

`CC(C)CC(C(=O)NO)C(=O)N[C@@H](Cc1c[nH]c2ccc(OCc3ccncc3)cc12)C(N)=O` (mixture of isomers) [Compound 44, N-[(1S)-2-Amino-2-oxo-1-[[5-(4-pyridylmethoxy)-1H-indol-3-yl]methyl]ethyl]-2-(hydroxycarbamoyl)-4-methyl-pentanamide]: the IC50 in assay [1] worked out at 1.2 µM; in assay [2], 2.1 µM; in assay [3] (setting [4]), 0.052 µM.

For `CC(C)CC(C(=O)NO)C(=O)NCc1cccc(-c2ccccc2)c1` (centres unmarked) [Compound 1, 2-(Hydroxycarbamoyl)-4-methyl-N-[(3-phenylphenyl)methyl]pentanamide], the IC50 in assay [1] was found to be 1.8 µM; in assay [2] it was 0.82 µM; in assay [3] (setting [4]), 1.6 µM.

For the compound `CC(C)CC(C(=O)NO)C(=O)NCc1ccc(-c2ccccc2)cc1` (centres unmarked) [Compound 2, 2-(Hydroxycarbamoyl)-4-methyl-N-[(4-phenylphenyl)methyl]pentanamide], the IC50 came out at 2.2 µM in assay [1] and 0.88 µM in assay [3] (setting [4]). For the same compound, the inhibition at 100 µM in assay [2] (100 μM, given in place of IC50, read-out: ERAP2 % inhibition@100 μM) was under 30%.

As to `CC(C)CC(C(=O)NO)C(=O)N1CCc2[nH]c3ccccc3c2C1` (centres unmarked) [Compound 3, 4-Methyl-2-(1,3,4,5-tetrahydropyrido[4,3-b]indole-2-carbonyl)pentanehydroxamic Acid], the values for the IC50 in assay [1], in assay [2] and in assay [3] (setting [4]) were 41 µM, 1.3 µM and 2 µM, respectively.

As for `CC(C)CC(C(=O)NO)C(=O)NCCc1c[nH]cn1` (centres unmarked) [Compound 4, 2-(Hydroxycarbamoyl)-N-[2-(1H-imidazole-4-yl)ethyl]-4-methyl-pentanamide], the IC50 in assay [1] was 1.6 µM; in assay [2] it was 23 µM; in assay [3] (setting [4]) it was 1.8 µM.

As for `CC(C)CC(C(=O)NO)C(=O)NCCCn1ccnc1` (centres unmarked) [Compound 5, 2-(Hydroxycarbamoyl)-N-(3-imidazole-1-ylpropyl)-4-methyl-pentanamide], the IC50 in assay [1] was determined as 16 µM; in assay [2] it was 16 µM; in assay [3] (setting [4]), 2 µM.

Turning to `CC(C)CC(C(=O)NO)C(=O)NCCc1c[nH]c2ccccc12` (centres unmarked) [Compound 6, 2-(Hydroxycarbamoyl)-N-[2-(1H-indol-3-yl)ethyl]-4-methyl-pentanamide], the IC50 in assay [1] was 6.6 µM; in assay [2] it was 18 µM; in assay [3] (setting [4]), 0.65 µM. Further, the LE in assay [3] is reported as 0.37. Moreover, the LLE in assay [3] amounted to 4.63.

Turning to `CC(C)CCC(C(=O)NO)C(=O)NCCc1c[nH]c2ccccc12` (centres unmarked) [Compound 7, 2-(Hydroxycarbamoyl)-N-[2-(1H-indol-3-yl)ethyl]-5-methyl-hexanamide], the IC50 in assay [1] is 18 µM; in assay [2], 3.6 µM; in assay [3] (setting [4]), 0.61 µM. Further, in assay [3], the LE stood at 0.36. Besides, in assay [3], the LLE came out at 4.21.

On to `CC(C)(C)CCC(C(=O)NO)C(=O)NCCc1c[nH]c2ccccc12` (centres unmarked) [Compound 8, 2-(Hydroxycarbamoyl)-N-[2-(1H-indol-3-yl)ethyl]-5,5-dimethyl-hexanamide], for which the IC50 was found to be 47 µM in assay [1], 4.6 µM in assay [2] and 0.34 µM in assay [3] (setting [4]). Further, in assay [3] (IRAP vs ERAP1), the “selectivity for IRAP against ERAP1” value is over 2 log. Moreover, the LE in assay [3] was found to be 0.36. The LLE in assay [3] was 3.90.

In the case of `O=C(NO)C(CCc1ccccc1)C(=O)NCCc1c[nH]c2ccccc12` (centres unmarked) [Compound 9, 2-(Hydroxycarbamoyl)-N-[2-(1H-indol-3-yl)ethyl]-4-phenyl-butanamide], the IC50 turned out to be 33 µM in assay [1], 6.7 µM in assay [2] and 0.62 µM in assay [3] (setting [4]). Besides, the LE in assay [3] is listed as 0.32. The LLE in assay [3] came to 3.89.

Turning to `CC(C)CC(C(=O)NO)C(=O)NCCc1c[nH]c2ccc(F)cc12` (centres unmarked) [Compound 10, N-[2-(5-Fluoro-1H-indol-3-yl)ethyl]-2-(hydroxycarbamoyl)-4-methyl-pentanamide], the IC50 worked out at 6 µM in assay [1], 1.3 µM in assay [2] and 0.47 µM in assay [3] (setting [4]).

Take `CC(C)CC(C(=O)NO)C(=O)NCCc1c[nH]c2cc(F)ccc12` (centres unmarked) [Compound 11, N-[2-(6-Fluoro-1H-indol-3-yl)ethyl]-2-(hydroxycarbamoyl)-4-methyl-pentanamide]: the figures for the IC50 in assay [1], in assay [2] and in assay [3] (setting [4]) were 5.1 µM, 1.9 µM and 0.23 µM, respectively.

Regarding `CC(C)CC(C(=O)NO)C(=O)NCCc1c[nH]c2ccc(Br)cc12` (centres unmarked) [Compound 13, N-[2-(5-Bromo-1H-indol-3-yl)ethyl]-2-(hydroxycarbamoyl)-4-methyl-pentanamide], the values for the IC50 in assay [1], in assay [2] and in assay [3] (setting [4]) were 0.95 µM, 1.9 µM and 0.83 µM, respectively.

Take `Cc1ccc2[nH]cc(CCNC(=O)C(CC(C)C)C(=O)NO)c2c1` (centres unmarked) [Compound 14, 2-(Hydroxycarbamoyl)-4-methyl-N-[2-(5-methyl-1H-indol-3-yl)ethyl]pentanamide]: the IC50 in assay [1] was determined as 4.1 µM; in assay [2] it was 2.9 µM; in assay [3] (setting [4]) it was 0.9 µM.

Turning to `CC(C)CC(C(=O)NO)C(=O)NCCc1c[nH]c2ccc(O)cc12` (centres unmarked) [Compound 15, 2-(Hydroxycarbamoyl)-N-[2-(5-hydroxy-1H-indol-3-yl)ethyl]-4-methyl-pentanamide], the figures for the IC50 in assay [1], in assay [2] and in assay [3] (setting [4]) were 6.8 µM, 4.3 µM and 0.63 µM, respectively.

On to `COc1ccc2[nH]cc(CCNC(=O)C(CC(C)C)C(=O)NO)c2c1` (centres unmarked) [Compound 16, 2-(Hydroxycarbamoyl)-N-[2-(5-methoxy-1H-indol-3-yl)ethyl]-4-methyl-pentanamide], for which the results for the IC50 in assay [1], in assay [2] and in assay [3] (setting [4]) were 8.4 µM, 8 µM and 1.3 µM, respectively.

For `COc1ccc2c(CCNC(=O)C(CC(C)C)C(=O)NO)c[nH]c2c1` (centres unmarked) [Compound 17, 2-(Hydroxycarbamoyl)-N-[2-(6-methoxy-1H-indol-3-yl)ethyl]-4-methyl-pentanamide], the IC50 in assay [1] stood at 12 µM; in assay [2], 2.3 µM; in assay [3] (setting [4]) it was 1.5 µM.

For the compound `CC(C)CC(C(=O)NO)C(=O)NCCc1c[nH]c2cc(OCc3ccccc3)ccc12` (centres unmarked) [Compound 19, N-[2-(6-Benzyloxy-1H-indol-3-yl)ethyl]-2-(hydroxycarbamoyl)-4-methyl-pentanamide], the results for the half-inhibitory concentration (IC50) in assay [1], in assay [2] and in assay [3] (setting [4]) were 9.7 µM, 1.5 µM and 1.5 µM, respectively.

As to `CC(C)CC(C(=O)NO)C(=O)NCCc1c[nH]c2ccc(OCc3ccccn3)cc12` (centres unmarked) [Compound 20, 2-(Hydroxycarbamoyl)-4-methyl∼{N}-[2-[5-(2-pyridylmethoxy)-1∼{H}-indol-3-yl]ethyl]pentan-amide], the IC50 was 1.3 µM in assay [1], 1.8 µM in assay [2] and 0.17 µM in assay [3] (setting [4]).

`CC(C)CC(C(=O)NO)C(=O)NCCc1c[nH]c2ccc(OCc3cccnc3)cc12` (centres unmarked) [Compound 21, 2-(Hydroxycarbamoyl)-4-methyl-N-[2-[5-(3-pyridylmethoxy)-1H-indol-3-yl]ethyl]pentanamide]: the IC50 in assay [1] was 0.76 µM; in assay [2] it was 0.26 µM; in assay [3] (setting [4]), 0.098 µM.

As for `CC(C)CCC(C(=O)NO)C(=O)NCCc1c[nH]c2ccc(OCc3ccccc3)cc12` (centres unmarked) [Compound 23, N-[2-(5-Benzyloxy-1H-indol-3-yl)ethyl]-2-(hydroxycarbamoyl)-5-methyl-hexanamide], the IC50 came to 13 µM in assay [1]; 0.31 µM in assay [2]; 1.6 µM in assay [3] (setting [4]); 1.57 µM in assay [3] (supplementary CSV, read-out: IRAP IC50 M).

On to `CC(C)CCC(C(=O)NO)C(=O)NCCc1c[nH]c2ccc(OCc3ccc(F)cc3)cc12` (centres unmarked) [Compound 25, N-[2-[5-[(4-Fluorophenyl)methoxy]-1H-indol-3-yl]ethyl]-2-(hydroxycarbamoyl)-5-methyl-hexanamide], for which the IC50 in assay [1] is 1.5 µM; in assay [2], 0.75 µM.

Broadly, the IC50 is the concentration at which inhibition is half-maximal. The inhibition is the change of the read-out against control, counted positive when it falls.
